Laboratory results as given in PubChem BioAssay AID248 (DTP/NCI, 2004).
Where “and” joins values, the source holds several entries; their conditions need not be identical. Equal entries are not always repeated. Toxic doses and inconclusive results are not listed. No stated cut-off is given here; in the data, active means T/C of 150% or more; inactive means T/C below 125%.

Tested on: L1210 leukemia ip in BDF1 mice, survival T/C
Assay: NCI In Vivo Anticancer Drug Screen. Data for tumor model L1210 Leukemia (intraperitoneal) in B6D2F1 (BDF1) mice
Conditions: endpoint: mean survival time, higher = longer survival
Procedure, shortened: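 Survival endpoint. Drug-treated group vs vehicle group, expressed as T divided by C. Tumor passaged by transplantation.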

[1] = dose: 100.0 mg/kg/injection, schedule: Q01DX001 (ip), vehicle: saline
[2] = dose: 200.0 mg/kg/injection, schedule: Q01DX001 (ip), vehicle: saline
[3] = dose: 400.0 mg/kg/injection, schedule: Q01DX001 (ip), vehicle: saline
[4] = dose: 100.0 mg/kg/injection, schedule: Q04DX003 (ip), vehicle: saline with Tween-80
[5] = dose: 200.0 mg/kg/injection, schedule: Q04DX003 (ip), vehicle: saline with Tween-80
[6] = dose: 400.0 mg/kg/injection, schedule: Q04DX003 (ip), vehicle: saline with Tween-80
[7] = dose: 100.0 mg/kg/injection, schedule: Q01DX009 (ip), vehicle: saline with Tween-80
[8] = dose: 200.0 mg/kg/injection, schedule: Q01DX009 (ip), vehicle: saline with Tween-80
[9] = dose: 400.0 mg/kg/injection, schedule: Q01DX009 (ip), vehicle: saline with Tween-80
[10] = dose: 100.0 mg/kg/injection, schedule: Q01DX009 (ip), vehicle: Klucel (hydroxypropylcellulose) (HPC)
[11] = dose: 100.0 mg/kg/injection, schedule: Q04DX003 (ip), vehicle: Klucel (hydroxypropylcellulose) (HPC)
[12] = dose: 200.0 mg/kg/injection, schedule: Q01DX009 (ip), vehicle: Klucel (hydroxypropylcellulose) (HPC)
[13] = dose: 200.0 mg/kg/injection, schedule: Q04DX003 (ip), vehicle: Klucel (hydroxypropylcellulose) (HPC)
[14] = dose: 400.0 mg/kg/injection, schedule: Q01DX009 (ip), vehicle: Klucel (hydroxypropylcellulose) (HPC)
[15] = dose: 400.0 mg/kg/injection, schedule: Q04DX003 (ip), vehicle: Klucel (hydroxypropylcellulose) (HPC)
[16] = dose: 50.0 mg/kg/injection, schedule: Q04DX003 (ip), vehicle: saline with Tween-80
[17] = dose: 25.0 mg/kg/injection, schedule: Q04DX003 (ip), vehicle: Klucel (hydroxypropylcellulose) (HPC)
[18] = dose: 25.0 mg/kg/injection, schedule: Q04DX003 (ip), vehicle: saline with Tween-80
[19] = dose: 50.0 mg/kg/injection, schedule: Q01DX009 (ip), vehicle: saline with Tween-80

Measured: T/C

CCCCCn1c(C)cc(/C=C\c2ccc3cc(C)ccc3[n+]2C)c1C
inactive: dose: 0.5 mg/kg/injection, schedule: Q01DX001 (ip), vehicle: carboxymethylcellulose (CMC) 94 % of control | dose: 0.5 mg/kg/injection, schedule: Q01DX009 (ip), vehicle: saline sonified 116 % of control | dose: 0.5 mg/kg/injection, schedule: Q04DX003 (ip), vehicle: saline sonified 98 % of control | dose: 0.66 mg/kg/injection, schedule: Q01DX009 (ip), vehicle: saline 101 % of control | dose: 1.0 mg/kg/injection, schedule: Q01DX001 (ip), vehicle: carboxymethylcellulose (CMC) 97 % of control | dose: 1.0 mg/kg/injection, schedule: Q01DX009 (ip), vehicle: saline 100 % of control | dose: 1.0 mg/kg/injection, schedule: Q04DX003 (ip), vehicle: saline sonified 97 % of control | dose: 1.5 mg/kg/injection, schedule: Q01DX009 (ip), vehicle: saline 92 % of control | dose: 2.0 mg/kg/injection, schedule: Q01DX001 (ip), vehicle: carboxymethylcellulose (CMC) 97 % of control | dose: 2.0 mg/kg/injection, schedule: Q04DX003 (ip), vehicle: saline sonified 106 % of control

COc1ccc(C2=NNC(=O)C2(C)Br)cc1 (stereo not drawn)
inactive: [1] 105 % of control | [2] 91 % of control | [3] 100 % of control

CN/N=C/c1ccc(O)c(OC)c1
inactive: [4] 95 % of control | [5] 90 % of control | [6] 91 % of control

c1ccc(CCSc2ccccc2)cc1
inactive: [7] 102 % of control | [4] 103 % of control | [8] 98 % of control | [5] 97 % of control | [9] 95 % of control | [6] 94 % of control

CC(=O)NC(C)c1ccccc1 (stereo not drawn)
inactive: dose: 50.0 mg/kg/injection, schedule: Q04DX002 (ip), vehicle: Klucel (hydroxypropylcellulose) (HPC) 108 % of control | dose: 75.0 mg/kg/injection, schedule: Q01DX009 (ip), vehicle: Klucel (hydroxypropylcellulose) (HPC) 96 % of control | dose: 100.0 mg/kg/injection, schedule: Q04DX002 (ip), vehicle: Klucel (hydroxypropylcellulose) (HPC) 108 % of control | dose: 150.0 mg/kg/injection, schedule: Q01DX009 (ip), vehicle: Klucel (hydroxypropylcellulose) (HPC) 89 % of control | dose: 200.0 mg/kg/injection, schedule: Q04DX002 (ip), vehicle: Klucel (hydroxypropylcellulose) (HPC) 108 % of control | dose: 300.0 mg/kg/injection, schedule: Q01DX009 (ip), vehicle: Klucel (hydroxypropylcellulose) (HPC) 100 % of control | dose: 400.0 mg/kg/injection, schedule: Q04DX002 (ip), vehicle: Klucel (hydroxypropylcellulose) (HPC) 111 % of control

O=S(=O)(Nc1ncccn1)c1ccc(N=Nc2ccc(O)c3ncccc23)cc1
inactive: [1] 100 % of control | [2] 103 % of control | [3] 103 % of control

O=C(NCCCl)Nc1cccc2cc3ccccc3cc12
inactive: [10] 95 % of control | [11] 96 % of control | [12] 103 % of control | [13] 96 % of control | [14] 95 % of control | [15] 102 % of control

CN(C)CCCN1c2ccc(O)cc2Sc2ccc(Cl)cc21
inactive: dose: 3.1 mg/kg/injection, schedule: Q01DX009 (ip), vehicle: other 90 % of control | dose: 6.2 mg/kg/injection, schedule: Q01DX009 (ip), vehicle: other 94 % of control | dose: 12.5 mg/kg/injection, schedule: Q01DX009 (ip), vehicle: other 94 % of control | dose: 25.0 mg/kg/injection, schedule: Q01DX009 (ip), vehicle: other 97 % of control | [16] 103 % of control | [4] 103 % of control

COc1ccc(OC(=O)Nc2ccccc2C(F)(F)F)cc1
inactive: [7] 98 % of control | [8] 107 % of control | [9] 102 % of control

FC(F)(F)c1cccc(NC(=S)NCc2ccco2)c1
inactive: [10] 90 % of control | [12] 93 % of control | [14] 96 % of control

CC(=O)Oc1ccc(N2C(=O)C=CC2=O)cc1
inactive: dose: 3.12 mg/kg/injection, schedule: Q01DX009 (ip), vehicle: Klucel (hydroxypropylcellulose) (HPC) 97 % of control | dose: 6.25 mg/kg/injection, schedule: Q01DX009 (ip), vehicle: Klucel (hydroxypropylcellulose) (HPC) 96 % of control | dose: 12.5 mg/kg/injection, schedule: Q01DX009 (ip), vehicle: Klucel (hydroxypropylcellulose) (HPC) 100 % of control | [17] 118 % of control

FC(F)c1nc2nc(Cl)c(Cl)nc2[nH]1
inactive: dose: 25.0 mg/kg/injection, schedule: Q01DX009 (ip), vehicle: saline with Tween-80 100 % of control | [18] 101 % of control | [19] 105 % of control | [16] 97 % of control | [4] 102 % of control and 106 % of control

Cc1cc(N(CCCl)CCCl)ccc1C=NC1CCCC1
inactive: dose: 100.0 mg/kg/injection, schedule: Q01DX001 (ip), vehicle: carboxymethylcellulose (CMC) 102 % of control | dose: 200.0 mg/kg/injection, schedule: Q01DX001 (ip), vehicle: carboxymethylcellulose (CMC) 105 % of control | dose: 400.0 mg/kg/injection, schedule: Q01DX001 (ip), vehicle: carboxymethylcellulose (CMC) 118 % of control

COC(=O)c1ccccc1NC(=O)c1ccccc1[N+](=O)[O-]
inactive: dose: 75.0 mg/kg/injection, schedule: Q04DX003 (ip), vehicle: Klucel (hydroxypropylcellulose) (HPC) 101 % of control | dose: 100.0 mg/kg/injection, schedule: Q01DX001 (ip), vehicle: Klucel (hydroxypropylcellulose) (HPC) 95 % of control | dose: 150.0 mg/kg/injection, schedule: Q04DX003 (ip), vehicle: Klucel (hydroxypropylcellulose) (HPC) 98 % of control | dose: 200.0 mg/kg/injection, schedule: Q01DX001 (ip), vehicle: Klucel (hydroxypropylcellulose) (HPC) 100 % of control | dose: 300.0 mg/kg/injection, schedule: Q04DX003 (ip), vehicle: Klucel (hydroxypropylcellulose) (HPC) 97 % of control | dose: 400.0 mg/kg/injection, schedule: Q01DX001 (ip), vehicle: Klucel (hydroxypropylcellulose) (HPC) 95 % of control

CC1(C)C2CCC1C(CO)C2 (stereo not drawn)
inactive: [10] 94 % of control | [11] 96 % of control | [12] 104 % of control | [13] 107 % of control | [14] 100 % of control | [15] 102 % of control

CCOC(=O)C[Si](C)(c1ccccc1)c1ccccc1
inactive: [1] 108 % of control | [2] 94 % of control | [3] 89 % of control

COc1cc(/C=C\[N+](=O)[O-])ccc1O
inactive: [18] 93 % of control | [16] 96 % of control | [4] 95 % of control

CCCCCCCCCCCCCCCCCCCC/C=C/C1CC(=O)OC1=O (stereo not drawn)
inactive: [10] 98 % of control | [11] 95 % of control | [12] 96 % of control | [13] 98 % of control | [14] 96 % of control | [15] 113 % of control

CC(=O)c1ccc(N=C(N)N=C(N)N)cc1
inactive: dose: 75.0 mg/kg/injection, schedule: Q01DX001 (ip), vehicle: carboxymethylcellulose (CMC) 110 % of control | dose: 150.0 mg/kg/injection, schedule: Q01DX001 (ip), vehicle: carboxymethylcellulose (CMC) 93 % of control

O=C(COc1ccc(Cl)c(Cl)c1)NCc1ccc[n+](Cc2ccc(S(=O)(=O)F)cc2)c1
inactive: [17] 106 % of control | dose: 50.0 mg/kg/injection, schedule: Q04DX003 (ip), vehicle: Klucel (hydroxypropylcellulose) (HPC) 101 % of control | [11] 94 % of control and 101 % of control

C=CCn1c2c(c3ccccc31)CCC2
inactive: [19] 86 % of control | [7] 93 % of control

O=C1c2ccccc2C(=O)N1CC[P+](c1ccccc1)(c1ccccc1)c1ccccc1
inactive: dose: 1.56 mg/kg/injection, schedule: Q01DX009 (ip), vehicle: water 106 % of control | dose: 3.12 mg/kg/injection, schedule: Q01DX009 (ip), vehicle: water 107 % of control | dose: 6.25 mg/kg/injection, schedule: Q01DX009 (ip), vehicle: water 108 % of control | dose: 12.5 mg/kg/injection, schedule: Q01DX009 (ip), vehicle: water 110 % of control | dose: 25.0 mg/kg/injection, schedule: Q01DX009 (ip), vehicle: water 98 % of control
